Read-outs that look alike come from different tables or passages of the source.
Key:
PLK1 kinase domain = target: T1, PLK1 kinase domain (Homo sapiens, UniProt P53350); test: Assay for inhibition of PLK1 (SPA, 33P-ATP, biotinylated peptide substrate); assay type: biochemical; conditions: 1 μM ATP, 2 nM PLK1 kinase domain; read-out: PLK1 pIC50 (converted)
T1 construct: made in house; host or cells: baculovirus infected T. ni cells
Experimental: I. Assay for Inhibition of PLK1
All procedures were performed at 4° C. Cells were lysed in 50 mM HEPES, 200 mM NaCl, 50 mM imidazole, 5% glycerol; pH 7.5. The homogenate was centrifuged at 14K rpm in a SLA-1500 rotor for 1 h and the supernatant filtered through a 1.2 micron filter. The supernatant was loaded onto a Nickel chelating Sepharose (Amersham Pharmacia) column and washed with lysis buffer. Protein was eluted using 20%, 30% and 100% buffer B steps where buffer B is 50 mM HEPES, 200 mM NaCl, 300 mM imidazole, 5% glycerol; pH 7.5. Fractions containing PLK were determined by SDS-PAGE. Fractions containing PLK were diluted five-fold with 50 mM HEPES, 1 mM DTT, 5% glycerol; pH 7.5, then loaded on an SP Sepharose (Amersham Pharmacia) column. After washing the column with 50 mM HEPES, 1 mM DTT, 5% glycerol; pH 7.5, PLK was step eluted with 50 mM HEPES, 1 mM DTT, 500 mM NaCl; 5% glycerol; pH 7.5. PLK was concentrated using a 10 kDa molecular weight cutoff membrane and then loaded onto a Superdex 200 gel filtration (Amersham Pharmacia) column equilibrated in 25 mM HEPES, 1 mM DTT, 500 mM NaCl, 5% glycerol; pH 7.5. Fractions containing PLK were determined by SDS-PAGE. PLK was pooled, aliquoted and stored at −80° C. Samples were quality controlled using mass spectrometry, N-terminal sequencing and amino acid analysis.
B. Enzyme activity +/− inhibitors was determined as follows: All measurements were obtained under conditions where signal production increased linearly with time and enzyme. Test compounds were added to white 384-well assay plates (0.1 μL for 10 μL and some 20 μL assays, 1 μL for some 20 μL assays) at variable known concentrations in 100% DMSO. DMSO (1-5% final, as appropriate) and EDTA (65 mM in reaction) were used as controls.
Reaction Mix (10 or 20 μL) was quickly added to each well immediately following addition of enzyme via automated liquid handlers and incubated 1-1.5 h at 22° C. The 20 μL enzymatic reactions were stopped with 50 μL of stop mix (50 mM EDTA, 4.0 mg/ml Streptavidin SPA beads in Standard Dulbecco's PBS (without Mg^2+ and Ca^2+), 50 μM ATP) per well. The 10 μL reactions were stopped with 10 μL of stop mix (50 mM EDTA, 3.0 mg/mL Streptavidin-coupled SPA Imaging Beads (“LeadSeeker”) in Standard Dulbecco's PBS (without Mg^2+ and Ca^2+), 50 μM ATP) per well. Plates were sealed with clear plastic seals, spun at 500×g for 1 min or settled overnight, and counted in Packard TopCount for 30 seconds/well (regular SPA) or imaged using a Viewlux imager (LeadSeeker SPA). Signal above background (EDTA controls) was converted to percent inhibition relative to that obtained in control (DMSO-only) wells.

HCT116 = test: Methylene blue growth inhibition assay, HCT116; assay type: cell-based; conditions: Homo sapiens
Experimental: (§1) II. Methylene Blue Growth Inhibition Assay—Inhibition of Cell Proliferation by PLK1 Inhibitors
(§2) Generally, exponentially growing cell lines of different tumor origins, cultured in appropriate media containing 10% fetal bovine serum at 37° C. in a 5% CO2 incubator were plated at low density (less than 2000 cells/well) in 96-well plates. […]. Seventy two hours post-treatment, cell numbers were determined using 100 μl per well of methylene blue (Sigma M9140) (0.5% in 50:50 Ethanol:water). Stain was incubated at room temperature for 30 minutes before plates were rinsed and dye solubilized in 1% N-lauroyl sarcosine, sodium salt, (Sigma L5125, in PBS) (further details of a methylene blue assay are described below). Plates were read on a microplate reader, measuring the OD at 620 nm.
(§3) . The data are shown in Table 1 below and represent a compilation of several different experiments, each performed using the general parameters outlined above, although minor variations may have been employed in some instances.
(§4) In one assay, normal human foreskin fibroblasts (HFF), human colon (HCT116, RKO), lung (H460, A549) and breast (MCF7) tumor cell lines were cultured in high glucose DMEM (Life Technologies) containing 10% fetal bovine serum (FBS) at 37° C. in a humidified 5% CO2, 95% air incubator. Cells were harvested using trypsin/EDTA, counted using a haemocytometer, and plated in 100 μL of culture media per well, at the following densities, in a 96-well tissue culture plate (Falcon 3075): HFF 5,000 cells/well, HCT116 3,000 cells/well, RKO 2,500 cells/well, H460 2,500 cells/well, A549 5,000 cells/well, MCF7 4,000 cells/well. The next day, compounds were diluted in low glucose DMEM containing 100 μg/mL gentamicin, at twice the final required concentration, from 10 mM stock solutions in DMSO. 100 μL/well of these dilutions were added to the 100 μL of media currently in the assay plates. Medium containing 0.6% DMSO was added to control wells. The final concentration of DMSO in all wells was 0.3%. Cells were incubated at 37° C., 5% CO2 for 72 h. Medium was removed by aspiration. Cell biomass was estimated by staining cells with 80 μL per well methylene blue (Sigma M9140, 0.5% in 50:50 ethanol:water), and incubation at room temperature for 30-60 min. Stain was removed by aspiration and the plates rinsed by immersion in water, then air-dried. To release stain from the cells, 100 μL of solubilization solution was added (1% N-lauroyl sarcosine, Sodium salt, Sigma L5125, in PBS), and plates were shaken gently for about 30 min. Optical density at 620 nm was measured on a microplate reader. Percent inhibition of cell growth was calculated relative to vehicle treated control wells. […].

H460 = test: Methylene blue growth inhibition assay, H460; assay type: cell-based; conditions: Homo sapiens
Experimental: as §1, §2, §3, §4

MCF7 = test: Methylene blue growth inhibition assay, MCF7; assay type: cell-based; conditions: Homo sapiens
Experimental: as §1, §2, §3, §4

A549 = test: Methylene blue growth inhibition assay, A549; assay type: cell-based; conditions: Homo sapiens
Experimental: as §1, §2, §3, §4

RKO = test: Methylene blue growth inhibition assay, RKO; assay type: cell-based; conditions: Homo sapiens, 72 h
Experimental: as §1, §2, §3, §4

[1] = test system: normal human foreskin fibroblasts (HFF); test: Methylene blue growth inhibition assay, HFF; assay type: cell-based; conditions: Fibroblast, 72 h
Experimental: as §1, §2, §3, §4

human plasma proteins = test: Protein binding to human plasma proteins using equilibrium dialysis; assay type: in vitro ADME; conditions: pH 7.4, equilibrium dialysis 6 h, 37° C.
Experimental: III. Determination of Protein Binding to Human Plasma Proteins Using Equilibrium Dialysis
96 Well Plate (High Throughput Dialysis): Stock solutions of compounds were spiked into human plasma at a target concentration of 2000 ng/mL. The mixture was inverted gently several times to insure homogeneity and triplicate 50 μL aliquots were collected to verify initial concentrations. Following assembly of dialysis plate (HTDialysis membrane strips, molecular weight cut off limit of 12,000-14,000 daltons), spiked plasma (150 μL) was placed in the donor compartment of the well and Phosphate Buffered Saline pH 7.4 (150 μL) in the receiver compartment. Eight wells were set up per compound and plasma type. Plate was placed in a 37° C. incubator on a plate shaker. Following the 6 h incubation period, the plate was removed. Single 50 μL aliquots from each donor and receiver compartment (per well) were analyzed. Sample analysis was by LC/MS/MS (results reported as Drug Peak Area/Internal Standard Peak Area ratios). Protein binding assay can also be performed using dialysis cells instead of HT Dialysis 96 well plates. In Table 1, % Protein Binding, +=>98%; ++=95-98%: +++=<95%.

[2] = High throughput solubility assay; assay type: physicochemical; conditions: aqueous buffer, pH 7.4, 0.05M phosphate buffer
Experimental: IV. High Throughput Solubility Assay
Two samples are prepared for each compound. One (the standard sample) contains the compound at a fixed concentration of 20 μM in an aqueous/organic mixed solvent cocktail. The other (the test sample) contains the compound at a maximum concentration of 200 μM in pH 7.4, 0.05M phosphate buffer and shaking for 24 h. The test sample is filtered by 0.45μ filter and then spun for 10 min to remove any undissolved solid. HPLC analyses are preformed on these samples. The peak areas are used for computing solubility.

[3] = HCT-116, methylene blue, 72 h, HCT116, read-out: HCT116 IC50
[4] = NCI-H460, methylene blue, 72 h, H460, read-out: H460 IC50
[5] = methylene blue, 72 h, MCF7, read-out: MCF7 IC50
[6] = methylene blue, 72 h, A549, read-out: A549 IC50
[7] = methylene blue, read-out: RKO IC50
[8] = methylene blue, HFF normal fibroblasts, read-out: HFF IC50

T1 sequence (P53350 21-346): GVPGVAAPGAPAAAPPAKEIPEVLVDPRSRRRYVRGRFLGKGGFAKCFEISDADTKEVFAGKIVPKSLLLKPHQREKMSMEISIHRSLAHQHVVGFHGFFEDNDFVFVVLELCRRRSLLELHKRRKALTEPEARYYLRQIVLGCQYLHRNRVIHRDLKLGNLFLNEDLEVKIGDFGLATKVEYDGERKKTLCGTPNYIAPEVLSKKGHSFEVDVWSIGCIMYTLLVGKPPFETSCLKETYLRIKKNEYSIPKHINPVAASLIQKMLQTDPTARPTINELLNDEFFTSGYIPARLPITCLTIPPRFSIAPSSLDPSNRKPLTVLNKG

SMILES	IC50 (PLK1 kinase domain)	IC50 (HCT116; [3])	IC50 (H460; [4])	IC50 (MCF7; [5])	IC50 (A549; [6])	fraction unbound at 6 h, 2000 ng/mL (human plasma proteins)	solubility at 24 h [2]	IC50 (RKO; [7])	IC50 [1, 8]	IC50 (HCT116; HCT-116, 72 h, read-out: HCT116 IC50 (μM))	IC50 (H460; NCI-H460, 72 h, read-out: H460 IC50 (μM))	IC50 (MCF7; MCF7, 72 h, read-out: MCF7 IC50 (μM))	IC50 (A549; A549, 72 h, read-out: A549 IC50 (μM))	IC50 (RKO; read-out: RKO IC50 (μM))	IC50 ([1]; read-out: HFF IC50 (μM))
COc1cc2ncn(-c3cc(OC(C)c4ccccc4Cl)c(C(N)=O)s3)c2cc1OC (stereo not drawn) [Com. Ex 126, reference compound]						< 0.02				< 0.1 µM	< 0.1 µM	> 1 µM	< 0.1 µM	< 0.1 µM	0.1 to 1 µM
COc1cc2ncn(-c3cc(OC(C)c4ccccc4C(F)(F)F)c(C(N)=O)s3)c2cc1OC (stereo not drawn) [Com. Ex 127, reference compound]	< 10 nM	0.1 to 1 µM	< 0.1 µM	0.1 to 1 µM	< 0.1 µM	< 0.02	< 30 µM	< 0.1 µM	> 1 µM						
C[C@@H](Oc1cc(-n2cnc3ccc(CN4CCN(C)CC4)cc32)sc1C(N)=O)c1ccccc1Cl [Example 4, 3-{[(1R)-1-(2-Chlorophenyl)ethyl]oxy}-5-{6-[(4-methylpiperazin-1-yl)methyl]-1H-benzimidazol-1-yl}thiophene-2-carboxamide]	< 10 nM	< 0.1 µM	< 0.1 µM	< 0.1 µM	< 0.1 µM		> 100 µM	< 0.1 µM	< 0.1 µM						
C[C@@H](Oc1cc(-n2cnc3ccc(OC4CCN(C)CC4)cc32)sc1C(N)=O)c1ccccc1Cl [Example 8, 3-{[(1R)-1-(2-Chlorophenyl)ethyl]oxy}-5-{6-[(1-methyl-4-piperidinyl)oxy]-1H-benzimidazol-1-yl}-2-thiophenecarboxamide]						> 0.05	> 100 µM								

Second part, led by results:

IC50 (PLK1 kinase domain)	IC50 (HCT116; [3])	IC50 (H460; [4])	IC50 (MCF7; [5])	IC50 (A549; [6])	fraction unbound at 6 h, 2000 ng/mL (human plasma proteins)	solubility at 24 h [2]	SMILES	IC50 (RKO; [7])	IC50 [1, 8]	IC50 (HCT116; HCT-116, 72 h, read-out: HCT116 IC50 (μM))	IC50 (H460; NCI-H460, 72 h, read-out: H460 IC50 (μM))	IC50 (MCF7; MCF7, 72 h, read-out: MCF7 IC50 (μM))	IC50 (A549; A549, 72 h, read-out: A549 IC50 (μM))	IC50 (RKO; read-out: RKO IC50 (μM))	IC50 ([1]; read-out: HFF IC50 (μM))
10 to 1000 nM	> 1 µM	> 1 µM	> 1 µM	> 1 µM	0.02 to 0.05		CS(=O)(=O)c1ccc2ncn(-c3cc(OCc4ccccc4C(F)(F)F)c(C(N)=O)s3)c2c1 [Com. Ex 121, reference compound]	> 1 µM	> 1 µM						
10 to 1000 nM	0.1 to 1 µM	0.1 to 1 µM	0.1 to 1 µM		> 0.05		COc1cc2ncn(-c3cc(OCc4ccccc4C(F)(F)F)c(C(N)=O)s3)c2cc1OCCN1CCN(C)CC1 [Com. Ex 136, reference compound]	0.1 to 1 µM	> 1 µM						
10 to 1000 nM	0.1 to 1 µM	> 1 µM	0.1 to 1 µM	> 1 µM	> 0.05	< 30 µM	NC(=O)c1sc(-n2cnc3ccc(OCC4CCNCC4)cc32)cc1OCc1ccccc1C(F)(F)F [Com. Ex 143, reference compound]	0.1 to 1 µM	> 1 µM						
< 10 nM	< 0.1 µM	< 0.1 µM	< 0.1 µM	< 0.1 µM	0.02 to 0.05	30 to 100 µM	C[C@@H](Oc1cc(-n2cnc3ccc(CS(C)(=O)=O)cc32)sc1C(N)=O)c1ccccc1C(F)(F)F [Example 1, 5-{6-[(Methylsulfonyl)methyl]-1H-benzimidazol-1-yl}-3-({(1R)-1-[2-(trifluoromethyl)phenyl]ethyl}oxy)-2-thiophenecarboxamide]	< 0.1 µM	0.1 to 1 µM						
< 10 nM	< 0.1 µM	< 0.1 µM		< 0.1 µM	> 0.05	> 100 µM	C[C@@H](Oc1cc(-n2cnc3ccc(OC4CCNCC4)cc32)sc1C(N)=O)c1ccccc1Cl [Example 6, 3-{[(1R)-1-(2-Chlorophenyl)ethyl]oxy}-5-[6-(4-piperidinyloxy)-1H-benzimidazol-1-yl]-2-thiophenecarboxamide]	< 0.1 µM	0.1 to 1 µM						
					> 0.05	> 100 µM	C[C@@H](Oc1cc(-n2cnc3ccc(OC4CCN(C)CC4)cc32)sc1C(N)=O)c1ccccc1C(F)(F)F [Example 7, 5-{6-[(1-Methyl-4-piperidinyl)oxy]-1H-benzimidazol-1-yl}-3-({(1R)-1-[2-(trifluoromethyl)phenyl]ethyl}oxy)-2-thiophenecarboxamide]								

Reference: US7595330B2, “Benzimidazole thiophene compounds” (SmithKline Beecham Corporation, priority 2005, dated 2009)
